In the supplement of paper PMC10307832:

How the values were obtained:
Test in all cases: relative viability (nuclei count vs DMSO), 5 days (fraction); higher = more cells survive
[1] = compound: CC[C@@H](C)CNCC(=O)N1CCC2=C([C@@H]1COC3=CC=CC(=C3)C)C=CS2 [RU-SKI 43] + O=C(c1cc(Cc2n[nH]c(=O)c3ccccc23)ccc1F)N1CCN(C(=O)C2CC2)CC1 [Olaparib] (partner 8 µM)
Procedure, shortened: (§1)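 After 5 days of treatment, lung cancer cells in 1536-well plates were fixed and stained in a single step (final 0.05% Triton X-100, 1% formaldehyde, 1 ug/ml Hoechst) and their nuclei counted on 4× images. Treatment had been applied by pin tool the day after seeding as one drug alone or as a fixed anchor-drug dose with five library-drug doses (not always all listed) in √10 steps. Relative viability is the nuclei count of treated wells divided by that of vehicle wells, and values are medians of duplicate plates.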

[2] = compound: CCc1c2c(nc3ccc(OC(=O)N4CCC(N5CCCCC5)CC4)cc13)-c1cc3c(c(=O)n1C2)COC(=O)[C@]3(O)CC [Irinotecan] + Cc1nc(NC(=O)N2CCC[C@H]2C(N)=O)sc1-c1ccnc(C(C)(C)C(F)(F)F)c1 [Alpelisib] (partner 2 µM)
Procedure, shortened: as §1

[3] = compound: CC[C@@H](C)CNCC(=O)N1CCC2=C([C@@H]1COC3=CC=CC(=C3)C)C=CS2 [RU-SKI 43] + C[C@]1(O)C[C@@H](c2nc(-c3ccc4ccc(-c5ccccc5)nc4c3)c3c(N)nccn32)C1 [Linsitinib] (partner 1 µM)
Procedure, shortened: as §1

[4] = compound: CCc1c2c(nc3ccc(OC(=O)N4CCC(N5CCCCC5)CC4)cc13)-c1cc3c(c(=O)n1C2)COC(=O)[C@]3(O)CC [Irinotecan] + Cc1nc(Nc2ncc(C(=O)Nc3c(C)cccc3Cl)s2)cc(N2CCN(CCO)CC2)n1 [Dasatinib] (partner 0.075 µM)
Procedure, shortened: as §1

Cell Line | relative viability ([1]; first compound 0.1 µM) | relative viability ([1]; first compound 0.3162 µM) | relative viability ([1]; first compound 1 µM) | relative viability ([1]; first compound 3.162 µM) | relative viability ([1]; first compound 10 µM) | relative viability ([2]; first compound 0.6325 µM) | relative viability ([2]; first compound 2 µM) | relative viability ([2]; first compound 6.325 µM) | relative viability ([2]; first compound 20 µM) | relative viability ([3]; first compound 0.1 µM) | relative viability ([3]; first compound 0.3162 µM) | relative viability ([3]; first compound 1 µM) | relative viability ([3]; first compound 3.162 µM) | relative viability ([3]; first compound 10 µM) | relative viability ([4]; first compound 0.6325 µM) | relative viability ([4]; first compound 2 µM) | relative viability ([4]; first compound 6.325 µM) | relative viability ([4]; first compound 20 µM)
SK-MES-1 | 0.643 | 0.775 | 0.762 | 0.737 | 0.702 | 0.997 | 0.877 | 0.426 | 0.267 | 1.03 | 1.1 | 1.18 | 1.04 | 1.01 | 0.293 | 0.284 | 0.22 | 0.186
HOP-62 | 0.322 | 0.235 | 0.223 | 0.511 | 0.436 | 0.244 | 0.171 | 0.158 | 0.129 | 1.04 | 0.938 | 1.1 | 1.17 | 1.04 | 0.549 | 0.589 | 0.276 | 0.201
NCI-H520 | 0.35 | 0.292 | 0.372 | 0.344 | 0.335 | 0.751 | 0.733 | 0.282 | 0.203 | 0.94 | 0.906 | 0.929 | 0.996 | 0.848 | 0.192 | 0.214 | 0.202 | 0.161
EBC-1 | 0.817 | 0.883 | 0.759 | 0.729 | 0.642 | 0.621 | 0.387 | 0.385 | 0.161 | 1.04 | 0.936 | 0.847 | 0.956 | 0.827 |  |  |  | 
BEN | 1.16 | 1.2 | 1.09 | 1.09 | 1.07 | 1.11 | 0.771 | 0.319 | 0.372 | 1.02 | 1.2 | 1.15 | 0.965 | 0.922 | 0.238 | 0.331 | 0.199 | 0.252
NCI-H322M | 0.703 | 0.817 | 0.76 | 0.797 | 0.703 | 0.576 | 0.37 | 0.282 | 0.395 | 0.832 | 0.915 | 0.967 | 1.02 | 0.893 | 0.247 | 0.331 | 0.358 | 0.191
LU99A | 0.261 | 0.276 | 0.285 | 0.271 | 0.262 | 0.219 | 0.23 | 0.225 | 0.219 | 0.484 | 0.596 | 0.58 | 0.597 | 0.505 | 0.303 | 0.322 | 0.248 | 0.177
NCI-H2405 | 0.835 | 0.885 | 0.905 | 0.855 | 0.842 |  | 0.678 | 0.291 | 0.0889 | 0.866 | 0.941 | 0.732 | 0.857 | 0.808 |  | 0.218 | 0.198 | 0.18
NCI-H1395 | 0.452 | 0.417 | 0.451 | 0.477 | 0.46 |  | 0.707 | 0.52 | 0.246 | 0.994 | 1.43 | 1.1 | 0.968 | 1.15 | 0.298 | 0.535 | 0.415 | 0.522
